Assay [1] has as its target T1, WT-HMBS (Homo sapiens, UniProt P08397).
T1 construct: Full-length HMBS was cloned into pET-28a(+)-TEV vector and transformed into BL21 (DE3) cells for expression; 6xHis (N, cleaved yes); TEV protease cleavage site (N, cleaved yes); made in house; host or cells: E. coli BL21 (DE3)
T1 sequence (P08397 1-361): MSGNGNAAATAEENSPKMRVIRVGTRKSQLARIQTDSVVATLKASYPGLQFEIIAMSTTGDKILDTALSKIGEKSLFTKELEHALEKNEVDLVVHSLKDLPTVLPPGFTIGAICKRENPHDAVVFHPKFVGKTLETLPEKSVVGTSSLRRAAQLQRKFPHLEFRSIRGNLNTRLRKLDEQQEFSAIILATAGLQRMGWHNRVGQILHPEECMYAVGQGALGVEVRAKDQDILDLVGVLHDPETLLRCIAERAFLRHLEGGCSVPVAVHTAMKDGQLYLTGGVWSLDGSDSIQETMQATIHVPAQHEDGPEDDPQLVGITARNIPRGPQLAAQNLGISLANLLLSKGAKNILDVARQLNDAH
Put plainly: HMBS activity after pre-incubation with compound at 70° C. The assay is classed as biochemical. The conditions noted are these: pre-incubation with compound at 70° C. 20 min, then standard assay 100 μM PBG at 37° C., 84 μM compound, 2% DMSO. The method, then:
The effect of the compounds on the stability of HMBS activity was assayed by pre-incubating the HMBS (4-5 μg) in 50 mM HEPES pH 8.2, 84 μM compound and 2% DMSO for 20 min at 70° C., and then placed on ice for 5 min. The enzymatic activity at 37° C. was subsequently measured as reported previously (Bustad et al., Bioscience reports 2013; 3 3(4)). Controls without compound but with equal concentration of DMSO were included. The remaining activity in the presence of compounds was normalized relative to DMSO-control (relative activity). […] USA, www.graphpad.com.
An enzymatic assay was performed to investigate the effect of compound BG-1 on the activity and conformational stability of HMBS. HMBS activity of the purified enzyme was measured in the absence and presence of compound BG-1 (at 84 μM) at standard conditions (37° C.) but also after pre-incubation at 70° C. for 20 min based on the high thermal stability of WT-HMBS.

Assay [2] concerns Hmbs-deficient T1/T2−/− mice. As to the kind of experiment: Mouse trial T1/T2-B, phenobarbital-induced biochemical acute attack. It counts as in vivo. The note with it: 20 mg/kg/day, 12 days; for Hepatic HMBS enzyme activity in liver homogenates: compared with control group; for Urinary ALA and PBG excretion: versus control group; for Increase in steady-state levels of HMBS in liver tissue: quantitative western immunoblotting. The method, then: The crude liver homogenates were passed through Zeba spin desalting columns (Thermo Fisher Scientific) to remove small molecules <2000 Da. 50 mM HEPES pH 8.2 was used as equilibration buffer. 25 μl filtrated homogenate (400-500 μg total protein) was added to 110 μl sample mix (50 mM HEPES, pH 8.2, 1% Triton™ X-100) and incubated for 10 min at 37° C. before adding PBG (1 mM). The reaction was stopped after 1 h by adding ice-cooled 100% TCA to a final concentration of 25%, incubated at room temperature (RT) for 10 min and centrifuged at 10,000 g for 10 min. The absorption was measured in the supernatant at A409 with baseline correction at A380 using NanoDrop™ 2000c spectrophotometer (Thermo Fisher Scientific). The activity of HMBS was expressed as relative activity in the compound-treated […] compared to DMSO-controls. A blank sample was prepared for each homogenate. The unpaired t-test (two tailed) was performed using GraphPad Prism.
Liver homogenates (5 μg total protein/lane) were loaded onto 10% Mini-Protean® TGX™ gels (Bio-Rad) and separated with Tris/Glycine/SDS electrophoresis buffer (Bio-Rad). Trans-Blot® Turbo™ Transfer Starter System (Bio-Rad) was used to transfer the proteins onto Immun-Blot® low fluorescence PVDF membranes (Bio-Rad). The membranes were then blocked with TBS containing 1% Tween® 20 (1% TBS-T) and 3% BSA for 1 h. HMBS was probed with 1:2,000 monoclonal mouse anti-HMBS (H-11, Santa Cruz Biotechnology), together with 1:1,000 rabbit anti-actin (Sigma-Aldrich), in 1% TBS-T, 3% BSA overnight, 4° C. Alexa Fluor 647 conjugated donkey-anti-mouse and Alexa Fluor 488 conjugated donkey-anti-rabbit (both Thermo Fisher Scientific) were used as secondary antibodies and incubated in 1:1,000 dilutions in 0.1% TBS-T for 1 h. Each step was followed by extensive wash with 0.1% TBS-T. Fluorescence detection was performed using G-Box Chemi-XRQ (Syngene Synoptics, Cambridge, UK) with filters UV06 and 705 nm for AF-488 and AF-647, respectively, and the band intensities of HMBS relative to the loading control (actin) were determined using ImageJ (Schneider et al., Nature methods 2012; 9(7): 671-5).
A general note: Immunoblotting shows a protein as a band on a membrane.

In assay [3] the target is T1, WT-HMBS. Put plainly: Surface plasmon resonance (SPR), HMBS immobilized to sensor chip. The note with it: sigmoidal fitting of binding isotherm, 25° C., 0-200 μM compound; read-out: S0.5 (concentration for half-maximal binding), SPR. On the procedure: Surface plasmon resonance experiments for the estimation of the concentration of compound at half-maximal binding (S0.5) were performed using a Biacore T200 (GE Healthcare) instrument at 25° C. 150 μg/ml WT-HMBS in 10 mM sodium acetate pH 4.5 was immobilized onto a CM5-S sensor chip through amine-coupling chemistry and PBS containing 0.05% surfactant P20 as running buffer, reaching immobilization levels ˜15,000. The baseline was equilibrated for 1-2 h, before the compounds were assayed in a concentration-dependent manner (0-200 μM), using running buffer with 5% DMSO and 30 μl/min flow rate. Contact and dissociation time was 60 s, with a final wash after 50% DMSO injection. Blank immobilization, solvent correction and negative control (assay buffer) were included for the analysis of the sensorgrams using the Biacore T200 Evaluation software v2.0. The allosteric sigmoidal curve fitting was performed using GraphPad Prism.
The binding of compounds BG-1 and BG-2 to HMBS was analyzed by surface plasmon resonance (SPR) and response units from concentration-dependent steady state measurements were analyzed assuming a 1:1 binding model. […] The interaction between compound BG-1 and HMBS was therefore further studied with Octet RED96 system with super streptavidin (SSA) biosensors. […]
(Surface plasmon resonance follows binding to a sensor surface in real time, without labels.)

Consider `O=Cc1cc(Cc2ccccc2Cl)cc([N+](=O)[O-])c1O` [BG-1], for which, in assay [1], the “Relative activity, pre-inc. at 70° C” value is on record as 1.01 ± 0.06. For the same compound, in assay [2], the “Hepatic HMBS enzyme activity in liver homogenates” value is listed as “significantly increased enzyme activity”; the “Urinary ALA and PBG excretion” value was “reduced”; the “Increase in steady-state levels of HMBS in liver tissue” value was determined as 2 fold. Besides, the “Relative concentration of ALA in liver” value in assay [2] (p<0.05 compared with control mice) was “decreased”. Also, the “Relative concentration of PBG in liver” value in assay [2] (p=0.053 compared with control mice) is “decreased”.

Turning to `O=C(c1ccccc1)c1ccc(Cl)c([N+](=O)[O-])c1` [BG-2], in assay [3], the Kd was 63 ± 3 µM. Also, in assay [2], the “Hepatic HMBS enzyme activity in liver homogenates” value is recorded as “significantly increased enzyme activity”; the “Urinary ALA and PBG excretion” value was “reduced”; the “Increase in steady-state levels of HMBS in liver tissue” value amounted to 2 fold.

Values taken from patent US20230225991A1, “COMPOUNDS FOR USE IN THE TREATMENT OF ACUTE INTERMITTENT PORPHYRIA” (VESTLANDETS INNOVASJONSSELSKAP AS, priority 2019, published 2023).
